Results taken from US11905274B2, “Receptor inhibitors, pharmaceutical compositions comprising the same and use thereof” (BEIJING TIDE PHARMACEUTICAL CO., LTD., priority 2018, dated 2024).

Target: AT2 Receptor (AT2R) (Homo sapiens (Human), UniProt P50052)
Experiment: Inhibitory activity on AT2 receptor (Tag-lite HTRF, Tb-labeled AT2R cells, angiotensin receptor red agonist)
Format: binding
Conditions: 1 h at room temperature

AT2 Receptor (AT2R), sequence (P50052 whole entry): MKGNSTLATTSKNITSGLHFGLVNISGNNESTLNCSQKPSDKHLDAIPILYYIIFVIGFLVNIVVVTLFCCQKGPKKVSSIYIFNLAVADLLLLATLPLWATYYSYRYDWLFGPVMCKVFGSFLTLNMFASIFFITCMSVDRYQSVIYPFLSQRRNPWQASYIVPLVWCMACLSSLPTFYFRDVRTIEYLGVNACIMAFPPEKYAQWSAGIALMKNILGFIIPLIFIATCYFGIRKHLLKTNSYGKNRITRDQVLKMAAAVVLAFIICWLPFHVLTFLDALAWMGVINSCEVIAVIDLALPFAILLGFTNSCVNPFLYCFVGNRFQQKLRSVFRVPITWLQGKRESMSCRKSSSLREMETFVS

CN(C)S(=O)(=O)NC(=O)[C@@H]1CN(C(=O)N(c2ccccc2)c2ccccc2)CCN1C(=O)N1c2ccccc2CC(=O)c2ccccc21 [Compound C103]
IC50: 334 nM

Cc1ccc(CN(C)C(=O)N2CCN(C(=O)N(c3ccccc3)c3ccccc3)[C@H](C(=O)O)C2)s1 [Compound C135, (S)-1-(diphenylcarbamoyl)-4-(methyl((5-methylthiophen-2-yl)methyl)carbamoyl)piperazine-2-carboxylic acid]
IC50: 28.2 nM

O=C1Cc2ccccc2N(C(=O)N2CCN(C(=O)N(c3ccccc3F)c3ccccc3F)C[C@H]2C(=O)O)c2ccccc21 [Compound C91, (S)-4-(bis(2-fluophenyl)carbamoyl)-1-(10-oxo-10,11-dihydro-5H-dibenzo [b,f]azepine-5-carbonyl)piperazine-2-carboxylic acid]
IC50: 30.7 nM

O=C(O)[C@@H]1CN(C(=O)N(c2ccccc2)c2ccccc2)CCN1C(=O)N1CCC[C@H]1c1ccccc1 [Compound C129, (S)-4-(diphenylcarbamoyl)-1-((S)-2-phenylpyrrolidinyl-1-carbonyl)piperazine-2-carboxylic acid]
IC50: 98.6 nM

CCN(Cc1csc(C)c1)C(=O)N1CCN(C(=O)N(c2ccccc2)c2ccccc2)[C@H](C(=O)O)C1 [Compound C137, (S)-1-(diphenylcarbamoyl)-4-(ethyl((5-methylthiophen-3-yl)methyl)carbamoyl) piperazine-2-carboxylic acid]
IC50: 36.5 nM

CC(C(=O)N1CCN(C(=O)N2c3ccccc3CC(=O)c3ccccc32)[C@H](C(=O)O)C1)(c1ccccc1)c1ccccc1 [Compound C106, (S)-4-(2,2-diphenylpropionyl)-1-(10-oxo-10,11-dihydro-5H-dibenzo [b,f]azepine-5-carbonyl) piperazine-2-carboxylic acid]
IC50: 282 nM

Cc1cc(CN(C(=O)N2CCN(C(=O)N(c3ccccc3)c3ccccc3)[C@H](C(=O)O)C2)C2CC2)cs1 [Compound C146, (S)-4-(cyclopropyl((5-methylthiophen-3-yl)methyl)carbamoyl)-1-(diphenylcarbamoyl) piperazine-2-carboxylic acid]
IC50: 14.2 nM

O=C(O)[C@@H]1CN(C(=O)N2CCC[C@@H]2c2ccccc2)CCN1C(=O)N(c1ccccc1)c1ccccc1 [Compound C128, (S)-1-(diphenylcarbamoyl)-4-((R)-2-phenylpyrrolidine-1-carbonyl) piperazine-2-carboxylic acid]
IC50: 12.4 nM

O=C(O)[C@@H]1CN(C(=O)OCc2ccccc2)CCN1C(=O)C1(c2ccccc2)CCCCC1 [Compound C86, (S)-4-((benzyloxy)carbonyl)-1-(1-phenylcyclohexanecarbonyl) piperazine-2-carboxylic acid]
IC50: 504 nM

O=C(O)[C@@H]1CN(C(=O)N2c3ccccc3CCc3ccccc32)CCN1C(=O)N1c2ccccc2CCc2ccccc21 [Compound C76, (S)-1,4-bis(10,11-dihydro-5H-dibenzo [b,f]azepine-5-carbonyl)piperazine-2-carboxylic acid]
IC50: 156 nM

Cc1cc(CN(C)C(=O)N2CCN(C(=O)N(c3ccccc3)c3ccccc3)[C@H](C(=O)O)C2)sc1C [Compound C144, (S)-4-(((4,5-dimethylthiophen-2-yl)methyl)(methyl)carbamoyl)-1-(diphenylcarbamoyl) piperazine-2-carboxylic acid]
IC50: 98.1 nM

CN(Cc1ccccc1)C(=O)N1CCN(C(=O)C(C)(c2ccccc2)c2ccccc2)[C@H](C(=O)O)C1 [Compound C133, (S)-4-(benzyl(methyl)carbamoyl)-1-(2,2-diphenylpropionyl) piperazine-2-carboxylic acid]
IC50: 24.3 nM

O=C1Cc2ccccc2N(C(=O)N2CCN(C(=O)N(c3ccccc3)c3ccccc3)C[C@H]2c2nn[nH]n2)c2ccccc21 [Compound C104, (S)-4-(10-oxo-10,11-dihydro-5H-dibenzo[b,f]azepine-5-carbonyl)-N, N-diphenyl-3-(1H-tetrazol-5-yl)piperazine-1-carboxamide]
IC50: 298 nM

O=C(O)[C@@H]1CN(C(=O)OCc2cccs2)CCN1C(=O)N(c1ccccc1)c1ccccc1 [Compound C140, (S)-1-(diphenylcarbamoyl)-4-((thiophene-2-ylmethoxy)carbonyl) piperazine-2-carboxylic acid]
IC50: 331 nM

Cc1ccc(CN(C(=O)N2CCN(C(=O)N(c3ccccc3)c3ccccc3)[C@H](C(=O)O)C2)C2CC2)s1 [Compound C145, (S)-4-(cyclopropyl((5-methylthiophen-2-yl)methyl)carbamoyl)-1-(diphenylcarbamoyl) piperazine-2-carboxylic acid]
IC50: 3.61 nM

COc1ccccc1N(C(=O)N1CCN(C(=O)N2c3ccccc3C(=O)N(C)c3ccccc32)[C@H](C(=O)O)C1)c1ccccc1OC [Compound C97, (S)-4-(bis(2-methoxyphenyl)carbamoyl)-1-(10-methyl-11-oxo-10,11-dihydro-5H-dibenzo [b,e][1,4]diazepine-5-carbonyl)piperazine-2-carboxylic acid]
IC50: 138 nM

Cc1ccc(CN(C(=O)N2CCN(C(=O)C(c3ccccc3)c3ccccc3)[C@H](C(=O)O)C2)C2CC2)s1 [Compound C153, (S)-4-(cyclopropyl((5-methylthiophen-2-yl)methyl)carbamoyl)-1-(2,2-diphenylacetyl)piperazine-2-carboxylic acid]
IC50: 5.47 nM

COc1cccc(N(C(=O)N2CCN(C(=O)N3c4ccccc4CC(=O)c4ccccc43)[C@H](C(=O)O)C2)c2cccc(OC)c2)c1 [Compound C108, (S)-4-(bis(3-methoxylphenyl)carbamoyl)-1-(10-oxo-10,11-dihydro-5H-dibenzo [b,f]azepine-5-carbonyl)piperazine-2-carboxylic acid]
IC50: 51.1 nM

O=C(O)[C@@H]1CN(C(=O)C2(c3ccccc3)CCCC2)CCN1C(=O)N(c1ccccc1)c1ccccc1 [Compound C83, (S)-1-(diphenylcarbamoyl)-4-(1-phenylcyclopentanecarbonyl) piperazine-2-carboxylic acid]
IC50: 6.35 nM

CCN(Cc1csc(Cl)c1)C(=O)N1CCN(C(=O)N(c2ccccc2)c2ccccc2)[C@H](C(=O)O)C1 [Compound C150, (S)-4-(((5-chlorothiophene-3-yl)methyl)(ethyl)carbamoyl)-1-(diphenylcarbamoyl) piperazine-2-carboxylic acid]
IC50: 26.1 nM

CCN(Cc1ccc(C)s1)C(=O)N1CCN(C(=O)N(c2ccccc2)c2ccccc2)[C@H](C(=O)O)C1 [Compound C134, (S)-1-(diphenylcarbamoyl)-4-(ethyl((5-methylthiophen-2-yl)methyl)carbamoyl) piperazine-2-carboxylic acid]
IC50: 18.5 nM

COc1ccccc1N(C(=O)N1CCN(C(=O)N2c3ccccc3CC(=O)c3ccccc32)[C@H](C(=O)NS(=O)(=O)N(C)C)C1)c1ccccc1OC [Compound C111, (S)-N^3-(N,N-dimethylsulphamoyl)-N^1,N^1-bis (2-methoxyphenyl)-4-(10-oxo-10,11-dihydro-5H-dibenzo[b,f]azepine-5-carbonyl) piperazine-1,3-dicarboxamide]
IC50: 229 nM

Cc1ccccc1N(C(=O)N1CCN(C(=O)N2c3ccccc3C=Cc3ccccc32)[C@H](C(=O)O)C1)c1ccccc1 [Compound C59, (S)-1-(5H-dibenzo[b,f]azepine-5-carbonyl)-4-(phenyl(orthomethylphenyl)carbamoyl) piperazine-2-carb oxylic acid]
IC50: 67.9 nM

CCN(Cc1ccsc1)C(=O)N1CCN(C(=O)N2c3ccccc3CC(=O)c3ccccc32)[C@H](C(=O)O)C1 [Compound C79, (S)-4-(ethyl (thiophene-3-ylmethyl)carbamoyl)-1-(10-oxo-10,ll-dihydro-5H-dibenzo[b,f]azepine-5-carbonyl) piperazine-2-carboxylic acid]
IC50: 460 nM

CCN1C(=O)c2ccccc2N(C(=O)N2CCN(C(=O)N(c3ccccc3)c3ccccc3)C[C@H]2C(=O)O)c2ccccc21 [Compound C98, (S)-4-(diphenylcarbamoyl)-1-(10-ethyl-11-oxo-10,11-dihydro-5H-dibenzo[b,e][1,4]diazepine-5-carbonyl) piperazine-2-carboxylic acid]
IC50: 8.18 nM

O=C(N1CCN(C(=O)N2c3ccccc3C=Cc3ccccc32)[C@H](c2nnn[nH]2)C1)N(c1ccccc1)c1ccccc1 [Compound C31, (S)-4-(5H-dibenzo[b,f]azepine-5-carbonyl)-N,N-diphenyl-3-(1H-tetrazol-5-yl)piperazine-1-carboxamide]
IC50: 219 nM

CN(Cc1ccccc1)C(=O)N1CCN(C(=O)N2c3ccccc3C=Cc3ccccc32)[C@H](C(=O)O)C1 [Compound C88, (S)-4-(benzyl(methyl)carbamoyl)-1-(5H-dibenzo[b,f]azepine-5-carbonyl) piperazine-2-carboxylic acid]
IC50: 387 nM

O=C1Cc2ccccc2N(C(=O)N2CCN(C(=O)N(c3ccccc3)c3ccccc3)C[C@H]2C(=O)NO)c2ccccc21 [Compound C123]
IC50: 503 nM

CCN(Cc1ccccc1)C(=O)N1CCN(C(=O)N2c3ccccc3CC(=O)c3ccccc32)[C@H](C(=O)O)C1 [Compound C78, (S)-4-(benzyl(ethyl)carbamoyl)-1-(10-oxo-10,11-dihydro-5H-dibenzo [b,f]azepine-5-carbonyl) piperazine-2-carboxylic acid]
IC50: 88.2 nM

CN(Cc1ccccc1)C(=O)N1CCN(C(=O)C2(c3ccccc3)CCCCC2)[C@H](C(=O)O)C1 [Compound C87, (S)-4-(benzyl(methyl)carbamoyl)-1-(1-phenylcyclohexanecarbonyl) piperazine-2-carboxylic acid]
IC50: 389 nM

O=C(O)[C@@H]1CN(C(=O)C(c2ccccc2)c2ccccc2)CCN1C(=O)N1c2ccccc2Sc2ccccc21 [Compound C21, (S)-4-(2,2-diphenylacetyl)-1-(10H-phenothiazine-10-carbonyl)piperazine-2-carboxylic acid]
IC50: 190 nM

O=C1Nc2ccccc2N(C(=O)N2CCN(C(=O)N(c3ccccc3)c3ccccc3)C[C@H]2C(=O)O)c2ccccc21 [Compound C53, (S)-4-(diphenylcarbamoyl)-1-(11-oxo-10,11-dihydro-5H-dibenzo[b,e][1,4]diazepine-5-carbonyl)piperazine-2-carboxylic acid]
IC50: 1340 nM
